From patent US5977133A, “Pyridone antibiotic with improved safety profile” (priority 1998, dated 1999)
≈ marks a conversion by molar mass, not a printed value. Entries after “also recorded” stand apart in the source; their conditions may differ. Counter-ions that a name gives are not always drawn. Like-named read-outs stand apart in the source and are kept apart here.

What was measured:
N. gonorrhoeae = test: In vitro MIC, agar dilution; type: cell-based; details: Neisseria gonorrhoeae; for MIC50: read-out: MIC50; for MIC: read-out: MIC Range
S. pyogenes = test: In vitro MIC, agar dilution; type: cell-based; details: Streptococcus pyogenes; for MIC: read-out: MIC Range
S. pneumoniae (PenS) = test: In vitro MIC, agar dilution; type: cell-based; details: Streptococcus pneumoniae; for MIC50: read-out: MIC50; for MIC: read-out: MIC Range
Escherichia coli JUHL = test: In vivo efficacy, mouse infection (ED50); details: for ED50: Escherichia coli, in Mus musculus, 168 h
staphylococci = test: In vitro MIC, agar dilution (summary in text); type: cell-based
enterococci = test: In vitro MIC, agar dilution (summary in text); type: cell-based
[1] = test system: gram positive and gram negative infections; test: In vivo efficacy in mice (overall statement); parameters: species or system female CF-1 outbred mice; details: for in vivo efficacy in words: gram positive and gram negative infections
streptococci = test: In vitro MIC, agar dilution (summary in text); type: cell-based
bacteria = test: In vitro antibacterial activity (overall statement); type: cell-based; details: overall statement
[2] = test system: ciprofloxacin resistant staphylococcal strains; test: In vitro MIC, agar dilution (summary in text); type: cell-based; details: read-out: MIC90
[3] = test system: Streptococcus pneumoniae 6303; test: In vivo efficacy, mouse infection (ED50); details: for ED50: Streptococcus pneumoniae, 6303, in Mus musculus, 168 h
in vivo = details: mouse, ip
[4] = test system: staphylococcus aureus NTCC 10649; test: In vivo efficacy, mouse infection (ED50); details: for ED50: Staphylococcus aureus, NTCC10649, in Mus musculus, 168 h
enterobacteriaceae = test: microbe, parasite or virus in culture; type: cell-based
anaerobes = type: cell-based, B. fragilis, C. difficile, C. perfringens; details: words
[5] = S. pyogenes, 21 isolates, read-out: MIC50
[6] = S. pneumoniae (PenS), 20 isolates

SMILES	MIC90 (N. gonorrhoeae)	MIC50 (N. gonorrhoeae; N. gonorrhoeae, 12 isolates)	MIC (N. gonorrhoeae; N. gonorrhoeae, 12 isolates)	MIC90 (S. pyogenes)	MIC (S. pyogenes)	MIC50 (S. pyogenes; [5])	MIC90 (S. pneumoniae (PenS))	MIC50 (S. pneumoniae (PenS); [6])	MIC (S. pneumoniae (PenS); [6])	ED50 (Escherichia coli JUHL; po)	ED50 (Escherichia coli JUHL; sc)	MIC50 (S. pyogenes)	MIC (S. pyogenes; S. pyogenes, 21 isolates)	ED50 ([3]; po)	ED50 ([3]; sc)	LD50 at 504 h (in vivo)	ED50 ([4]; po)	ED50 ([4]; sc)	MIC (S. pneumoniae (PenS))	other results
NC1CCN(c2c(F)cc3c(=O)c(C(=O)O)cn(C4CC4)c3c2Cl)C1 (stereo not shown) [Clinafloxacin, clinafloxacin]	0.015 µg/mL (≈ 0.041 µM)	0.004 µg/mL (≈ 0.0109 µM)	0.004 to 0.015 µg/mL (≈ 0.0109 to 0.041 µM)	0.06 µg/mL (≈ 0.164 µM)	0.06 to 0.12 µg/mL (≈ 0.164 to 0.328 µM)	0.06 µg/mL (≈ 0.164 µM)	0.12 µg/mL (≈ 0.328 µM)	0.06 µg/mL (≈ 0.164 µM)	0.03 to 0.12 µg/mL (≈ 0.082 to 0.328 µM)											
CN[C@@H]1CN(c2c(F)cn3c(=O)c(C(=O)O)cc(C4CC4)c3c2C)CC12CC2 [Example 1, 1-cyclopropyl-8-(7(S)-N-methylamino-5-azaspiro[2.4]heptyl)-7-fluoro-9-methyl-4-oxo-4H-guinolizine-3-carboxylic acid hydrochloride]	0.004 µg/mL	0.002 µg/mL	0.001 to 0.015 µg/mL	0.06 µg/mL						6.8 mg/kg	1.4 mg/kg	0.03 µg/mL	0.03 to 0.06 µg/mL	20 mg/kg	12.5 mg/kg	232 mg/kg	5 mg/kg	1.5 mg/kg		efficacy relative to ciprofloxacin (Escherichia coli JUHL; E. coli, words): comparable; MIC90 (staphylococci): 0.03 µg/mL; in vitro activity relative to reference drugs (staphylococci; words): superior to ciprofloxacin, sparfloxacin, and trovafloxacin; MIC90 (enterococci): 0.25 to 1 µg/mL; in vitro activity relative to reference drugs (enterococci; words): superior to ciprofloxacin, sparfloxacin, and trovafloxacin; weight loss in words (mouse, in vivo): no weight loss was observed; relative toxicity / safety in words (single intraperitoneal injection to mice, hydrochloride): significantly less toxic than Example 2 or Example 5; also recorded: less morbidity and mortality than equivalent doses of Example 2 and Example 5; in vivo efficacy in words ([1]; hydrochloride): maintaining efficacy versus S. aureus. S. pneumoniae and E. coli; in vivo efficacy in words ([1]; listed as example 1, hydrochloride): broad spectrum efficacy against both gram positive and gram negative infections; oral efficacy in words ([1]; oral, all infections): Oral efficacy was also demonstrated against all infections; MIC90 (streptococci): 0.06 µg/mL; in vitro activity relative to reference drugs (streptococci; words): superior to ciprofloxacin, sparfloxacin, and trovafloxacin; antibacterial activity in words (bacteria): excellent, broad-spectrum antibacterial activity; MIC90 [2]: 0.5 µg/mL; efficacy relative to ciprofloxacin ([3]; S. pneumoniae, words): superior to ciprofloxacin; efficacy relative to ciprofloxacin ([4]; S. aureus, words): superior to ciprofloxacin; MIC90 (enterobacteriaceae): 0.015 to 0.25 µg/mL; in vitro activity relative to reference drugs (enterobacteriaceae): equivalent to ciprofloxacin and superior to trovafloxacin and sparfloxacin; in vitro activity relative to reference drugs (anaerobes): significantly more active than ciprofloxacin, trovafloxacin, and sparfloxacin
Cc1c(N2C[C@@H](N)C3(CC3)C2)c(F)cn2c(=O)c(C(=O)O)cc(C3CC3)c12 [Example 5, 1-cyclopropyl-8-(7(S)-amino-5-azaspiror2.41heptvl)-7-fluoro-9-methyl4-oxo-4H-quinolizine-3-carboxylic acid hydrochloride]	0.015 µg/mL	0.002 µg/mL	0.002 to 0.015 µg/mL	0.03 µg/mL			0.06 µg/mL	0.06 µg/mL	0.03 to 0.06 µg/mL	5 mg/kg	0.6 mg/kg	0.03 µg/mL	0.015 to 0.06 µg/mL	4.2 mg/kg	0.9 mg/kg	105 mg/kg	2.3 mg/kg	0.9 mg/kg		body weight loss (mouse, in vivo, ip, 100 mg/kg): 18%
C[C@@H]1CN(c2c(F)c(N)c3c(=O)c(C(=O)O)cn(C4CC4)c3c2F)C[C@H](C)N1 [Sparfloxacin, sparfloxacin]	0.015 µg/mL (≈ 0.0382 µM)	0.004 µg/mL (≈ 0.0102 µM)	0.002 to 0.06 µg/mL (≈ 0.0051 to 0.153 µM)	0.5 µg/mL (≈ 1.27 µM)	0.12 to 1 µg/mL (≈ 0.306 to 2.55 µM)	0.25 µg/mL (≈ 0.637 µM)	0.5 µg/mL (≈ 1.27 µM)	0.25 µg/mL (≈ 0.637 µM)											0.12 to 0.5 µg/mL (≈ 0.306 to 1.27 µM)	
N[C@@H]1[C@H]2CN(c3nc4c(cc3F)c(=O)c(C(=O)O)cn4-c3ccc(F)cc3F)C[C@@H]12 [Trovafloxacin, trovafloxacin]	0.06 µg/mL (≈ 0.144 µM)	0.015 µg/mL (≈ 0.036 µM)		0.25 µg/mL (≈ 0.6 µM)		0.12 µg/mL (≈ 0.288 µM)	0.5 µg/mL (≈ 1.2 µM)	0.5 µg/mL (≈ 1.2 µM)					0.06 to 1 µg/mL (≈ 0.144 to 2.4 µM)						0.12 to 0.5 µg/mL (≈ 0.288 to 1.2 µM)	MIC (N. gonorrhoeae): 0.015 to 0.12 µg/mL (≈ 0.036 to 0.288 µM)
